The values that follow come from patent US6117841A, “Substituted peptidylamine calcium channel blockers” (Warner-Lambert Company, priority 1999, dated 2000).

Read-outs that look alike come from different tables or passages of the source.

One assay relates to DBA/2 mice. Briefly: In vivo anticonvulsant activity, sound-induced tonic seizures in DBA/2 mice. The following applies: tested 15 or 45 minutes after injection; for DBA/2 mice % Protection dose @ 30 mg/kg: 30 mg/kg intravenous. The procedure: A compound of the present invention was dissolved in water using 10% (weight/volume) Emulphor (GAF Corp., Wayne, N.J.) surfactant. Substances were administered by intravenous injection into the retro-orbital venous sinus. All testing was performed 15 minutes or 45 minutes after drug injection. All the male mice, 3-4 weeks old were obtained from Jackson Laboratories Bar Harbour, Me. Immediately before anticonvulsant testing, mice were placed upon a wire mesh, 4 inches square suspended from a steel rod. The square was slowly inverted through 180 degrees and mice observed for 30 seconds. Any mouse falling from the wire mesh was scored as ataxia.
Mice were placed into an enclosed acrylic plastic chamber (21 cm height, approximately 30 cm diameter) with a high-frequency speaker (4 cm diameter) in the center of the top lid. An audio signal generator (Protek model B-810) was used to produce a continuous sinusoidal tone that was swept linearly in frequency between 8 kHz and 16 kHz once each 10 msec. The average sound pressure level (SPL) during stimulation was approximately 100 dB at the floor of the chamber. Mice were placed within the chamber and allowed to acclimatize for 1 minute. DBA/2 mice in the vehicle-treated group responded to the sound stimulus (applied until tonic extension occurred, or for a maximum of 60 sec) with a characteristic seizure sequence consisting of wild running followed by clonic seizures, and later by tonic extension, and finally by respiratory arrest and death in 80% or more of the mice. In vehicle-treated mice, the entire sequence of seizures to respiratory arrest lasts approximately 15-20 seconds.
The incidence of all the seizure phases in the drug-treated and vehicle-treated mice was recorded, and the occurrence of tonic seizures were used for calculatine anticonvulsant ED50 values by probit analysis. Mice were used only once for testing at each time and dose point.

The next assay deals with T1, N-type Ca^2+ Channel (Homo sapiens, UniProt Q00975).
T1 construct: host or cells: IMR-32 cells differentiated with dibutyryl cAMP and bromodeoxyuridine
T1 sequence (Q00975 whole entry): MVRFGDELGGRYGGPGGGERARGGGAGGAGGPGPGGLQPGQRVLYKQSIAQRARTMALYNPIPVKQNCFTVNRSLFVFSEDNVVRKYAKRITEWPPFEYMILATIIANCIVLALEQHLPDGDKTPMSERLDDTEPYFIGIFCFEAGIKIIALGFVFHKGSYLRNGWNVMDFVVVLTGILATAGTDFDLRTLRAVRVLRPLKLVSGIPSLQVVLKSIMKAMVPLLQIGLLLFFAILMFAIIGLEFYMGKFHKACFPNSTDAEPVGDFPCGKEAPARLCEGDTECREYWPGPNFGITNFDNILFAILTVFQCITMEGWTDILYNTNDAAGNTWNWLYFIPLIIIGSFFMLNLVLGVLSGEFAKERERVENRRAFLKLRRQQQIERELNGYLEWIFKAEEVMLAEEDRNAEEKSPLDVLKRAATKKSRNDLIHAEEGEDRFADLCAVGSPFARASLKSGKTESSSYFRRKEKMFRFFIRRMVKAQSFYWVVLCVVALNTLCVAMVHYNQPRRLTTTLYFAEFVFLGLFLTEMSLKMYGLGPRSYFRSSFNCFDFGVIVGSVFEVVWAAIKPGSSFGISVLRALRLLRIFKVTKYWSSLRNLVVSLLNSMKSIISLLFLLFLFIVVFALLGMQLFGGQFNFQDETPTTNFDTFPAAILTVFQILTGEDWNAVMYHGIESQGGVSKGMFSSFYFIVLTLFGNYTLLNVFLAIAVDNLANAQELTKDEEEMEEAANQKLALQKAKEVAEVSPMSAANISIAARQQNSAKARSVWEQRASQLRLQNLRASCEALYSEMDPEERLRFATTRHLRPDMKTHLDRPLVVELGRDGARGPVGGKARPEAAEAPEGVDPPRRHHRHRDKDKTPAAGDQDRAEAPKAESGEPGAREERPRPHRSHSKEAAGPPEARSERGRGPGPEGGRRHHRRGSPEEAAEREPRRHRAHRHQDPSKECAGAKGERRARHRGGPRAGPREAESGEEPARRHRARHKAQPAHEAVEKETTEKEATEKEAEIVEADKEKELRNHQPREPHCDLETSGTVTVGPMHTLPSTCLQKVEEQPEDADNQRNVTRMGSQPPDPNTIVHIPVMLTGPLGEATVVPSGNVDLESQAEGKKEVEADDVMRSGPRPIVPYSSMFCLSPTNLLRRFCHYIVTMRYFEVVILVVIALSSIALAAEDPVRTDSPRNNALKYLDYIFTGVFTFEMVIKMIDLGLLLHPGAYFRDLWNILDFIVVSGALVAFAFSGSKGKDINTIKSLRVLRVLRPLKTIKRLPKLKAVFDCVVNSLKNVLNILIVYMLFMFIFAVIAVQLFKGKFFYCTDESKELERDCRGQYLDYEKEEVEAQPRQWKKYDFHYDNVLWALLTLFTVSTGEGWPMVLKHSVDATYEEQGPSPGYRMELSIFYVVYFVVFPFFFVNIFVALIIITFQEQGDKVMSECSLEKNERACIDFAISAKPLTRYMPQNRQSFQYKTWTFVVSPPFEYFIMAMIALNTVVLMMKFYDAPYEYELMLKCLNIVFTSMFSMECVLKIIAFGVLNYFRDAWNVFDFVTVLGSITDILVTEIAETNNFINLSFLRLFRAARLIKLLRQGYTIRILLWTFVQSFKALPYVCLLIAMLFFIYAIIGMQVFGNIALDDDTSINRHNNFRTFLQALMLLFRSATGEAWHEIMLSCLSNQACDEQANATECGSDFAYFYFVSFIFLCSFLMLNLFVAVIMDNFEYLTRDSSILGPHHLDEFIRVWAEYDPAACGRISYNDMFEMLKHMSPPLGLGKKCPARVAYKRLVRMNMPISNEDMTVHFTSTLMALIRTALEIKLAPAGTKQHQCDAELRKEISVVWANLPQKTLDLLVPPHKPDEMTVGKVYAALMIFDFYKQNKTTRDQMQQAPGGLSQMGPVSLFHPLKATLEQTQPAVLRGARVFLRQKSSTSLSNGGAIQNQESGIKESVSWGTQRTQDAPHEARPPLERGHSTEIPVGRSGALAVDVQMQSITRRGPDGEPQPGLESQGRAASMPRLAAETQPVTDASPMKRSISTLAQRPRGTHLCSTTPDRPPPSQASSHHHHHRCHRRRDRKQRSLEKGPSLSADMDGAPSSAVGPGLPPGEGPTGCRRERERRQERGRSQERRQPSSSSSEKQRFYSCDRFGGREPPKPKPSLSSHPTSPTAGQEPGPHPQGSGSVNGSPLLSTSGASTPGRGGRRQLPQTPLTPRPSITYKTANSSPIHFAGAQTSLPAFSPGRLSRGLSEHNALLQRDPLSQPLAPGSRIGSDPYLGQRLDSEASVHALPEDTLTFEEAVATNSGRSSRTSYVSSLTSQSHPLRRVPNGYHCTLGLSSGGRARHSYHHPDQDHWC
T1 sequence (P54284 whole entry partner): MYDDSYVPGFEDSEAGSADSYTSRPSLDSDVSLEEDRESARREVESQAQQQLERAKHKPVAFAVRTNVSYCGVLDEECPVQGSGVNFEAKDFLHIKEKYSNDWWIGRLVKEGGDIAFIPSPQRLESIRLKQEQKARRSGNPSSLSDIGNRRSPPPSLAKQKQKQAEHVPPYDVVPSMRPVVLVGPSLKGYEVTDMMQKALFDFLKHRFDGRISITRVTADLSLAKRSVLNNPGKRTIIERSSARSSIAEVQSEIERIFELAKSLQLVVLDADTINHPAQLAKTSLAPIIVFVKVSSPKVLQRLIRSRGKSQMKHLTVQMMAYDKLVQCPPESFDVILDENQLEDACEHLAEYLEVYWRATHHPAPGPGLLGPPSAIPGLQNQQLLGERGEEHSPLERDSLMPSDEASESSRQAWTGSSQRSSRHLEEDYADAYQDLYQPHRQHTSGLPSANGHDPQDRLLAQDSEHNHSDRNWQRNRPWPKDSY
T1 sequence (P54289 25-946 partner limits assumed): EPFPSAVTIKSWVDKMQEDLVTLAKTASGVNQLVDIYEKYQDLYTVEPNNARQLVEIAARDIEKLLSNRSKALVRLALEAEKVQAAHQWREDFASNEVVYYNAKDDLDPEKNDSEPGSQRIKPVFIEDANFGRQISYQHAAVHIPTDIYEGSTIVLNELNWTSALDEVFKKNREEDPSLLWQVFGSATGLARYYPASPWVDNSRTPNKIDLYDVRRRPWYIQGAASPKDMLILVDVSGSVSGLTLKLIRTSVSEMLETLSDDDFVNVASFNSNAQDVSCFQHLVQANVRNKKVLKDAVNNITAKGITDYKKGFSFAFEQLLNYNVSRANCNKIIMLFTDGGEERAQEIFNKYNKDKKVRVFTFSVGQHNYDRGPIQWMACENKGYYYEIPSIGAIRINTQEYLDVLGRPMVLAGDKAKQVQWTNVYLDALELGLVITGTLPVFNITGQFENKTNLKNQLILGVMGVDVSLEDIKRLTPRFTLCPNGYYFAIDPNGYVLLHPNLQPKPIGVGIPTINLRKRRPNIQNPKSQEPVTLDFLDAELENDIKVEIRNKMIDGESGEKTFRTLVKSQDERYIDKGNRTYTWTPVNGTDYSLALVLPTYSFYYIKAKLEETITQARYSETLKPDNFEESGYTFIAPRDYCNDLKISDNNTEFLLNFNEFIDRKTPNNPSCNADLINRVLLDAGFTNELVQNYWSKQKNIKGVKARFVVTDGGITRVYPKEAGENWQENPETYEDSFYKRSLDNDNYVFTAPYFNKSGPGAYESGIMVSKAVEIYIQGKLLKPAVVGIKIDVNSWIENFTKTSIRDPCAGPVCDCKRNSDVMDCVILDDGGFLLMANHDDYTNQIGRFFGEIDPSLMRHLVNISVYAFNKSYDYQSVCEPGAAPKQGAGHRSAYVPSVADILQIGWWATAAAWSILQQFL
T1 sequence (P54289 947-1103 partner limits assumed): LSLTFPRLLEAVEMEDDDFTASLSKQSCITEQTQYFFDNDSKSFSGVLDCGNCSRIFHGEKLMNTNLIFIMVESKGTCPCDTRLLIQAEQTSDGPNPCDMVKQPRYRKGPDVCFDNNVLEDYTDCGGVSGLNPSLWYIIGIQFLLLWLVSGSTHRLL
Put plainly: Measurement of N-type Ca2+ channel blocking potencies in IMR-32 cells using the fluorescent Ca2+ indicator Indo-1. Type of assay: cell-based. The following applies: IMR-32 cells. The essentials: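 IMR-32 cells were differentiated 7–13 days (1 mM dibutyryl cAMP, 2.5 µM BrdU) and Indo-1-loaded. They were preincubated 10 min at 30 °C with compound and 5 µM nitrendipine in HEPES/Tris pH 7.4 HBSS with 0.5% BSA, then KCl/CaCl2-depolarized. The peak-minus-basal 400/490 nm emission ratio gave IC50 by four-parameter logistic fit.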

Where [1] appears, read: K+ depolarization, 5 μM nitrendipine to block L-type channels, read-out: IMR 32 IC50.
[2] abbreviates: 5 μM nitrendipine, Examples 116-140, read-out: IMR 32% of Blockade @.

As for `CC(C)C[C@H](NC1CCCCC1)C(=O)N[C@@H](Cc1ccc(OCc2ccccc2)cc1)C(=O)OC(C)(C)C` (relative stereo) [Example 93, [S-(R*,R*)]-3-(4-Benzyloxy-phenyl)-2-(2-cyclohexylamino-4-methyl-pentanoylamino)-propionic acid tert-butyl ester], in the assay on DBA/2 mice, the “DBA/2 mice % Protection dose @ 30 mg/kg” value is given as 80%. Moreover, the IC50 on N-type Ca^2+ Channel (setting [1]) turned out to be 200 nM. In the same order, the values of `CC(C)C[C@@H](C(=O)N[C@@H](Cc1ccc(OCc2ccccc2)cc1)C(=O)NC(C)(C)C)N(C)Cc1ccco1` (relative stereo) [Example 90, [S-(R*,R*)]-2-(Furan-2-ylmethyl-methyl-amino)-4-methyl-pentanoic acid [2-(4-benzyloxy-phenyl)-1-tert-butylcarbamoyl-ethyl]-amide] are 60% and 900 nM. As to `CC(C)CCN(C)[C@@H](CC(C)C)C(=O)N[C@H](Cc1ccc(OCc2ccccc2)cc1)C(=O)NC(C)(C)C` (relative stereo) [Example 84, [S-(R*,S*)]-4-Methyl-2-[methyl-(3-methyl-butyl)-amino]-pentanoic acid [2-(4-benzyloxy-phenyl)-1-tert-butylcarbamoyl-ethyl]-amide], the “DBA/2 mice % Protection (10 mg/kg)” value with DBA/2 mice (10 mg/kg intravenous) is listed as 100%. Moreover, on N-type Ca^2+ Channel (setting [1]), the IC50 came out at 370 nM. For the compound `CC(C)C[C@@H](C(=O)N[C@@H](Cc1ccc(OCc2ccccc2)cc1)C(=O)NC(C)(C)C)N(C)CC1CCCCC1` (relative stereo) [Example 25, [S-(R*,R*)]-2-(Cyclohexylmethyl-methyl-amino)-4-methyl-pentanoic acid [2-(4-benzyloxy-phenyl)-1-tert-butylcarbamoyl-ethyl]-amide], the “DBA/2 mice % Protection dose @ 30 mg/kg” value in the assay with DBA/2 mice amounted to 100%. Moreover, on N-type Ca^2+ Channel (setting [1]), the IC50 is 670 nM. For the compound `CC(C)C[C@@H](C(=O)N[C@@H](Cc1ccc(OCc2ccccc2)cc1)C(=O)NC(C)(C)C)N(C)CCC(C)O` (relative stereo) [Example 97, [S-(R*,R*)]-2-[(3-Hydroxy-butyl)-methyl-amino]-4-methyl-pentanoic acid [2-(4-benzyloxy-phenyl)-1-tert-butylcarbamoyl-ethyl]-amide], the “DBA/2 mice % Protection dose @ 30 mg/kg” value with DBA/2 mice is 40%. On N-type Ca^2+ Channel (setting [1]), the IC50 came to 2200 nM. For `CC(C)=CCNC(CC(C)C)C(=O)NC(Cc1ccc(OCc2ccccc2)cc1)C(=O)OC(C)(C)C` (stereo not drawn) [Example 31, [S-(R*,R*)]-3-(4-Benzyloxy-phenyl)-2-[4-methyl-2-(3-methyl-but-2-enylamino)-pentanoylamino]-propionic acid tert-butyl ester], in the assay with DBA/2 mice, the “DBA/2 mice % Protection dose @ 30 mg/kg” value is 100%. Moreover, on N-type Ca^2+ Channel (setting [1]), the IC50 came out at 320 nM. Consider `CC(C)CC(C(=O)NC(Cc1ccc(OCc2ccccc2)cc1)C(=O)NC(C)(C)C)N(C)Cc1ccc(C(C)(C)C)cc1` (stereo not drawn) [Example 13, [S-(R*,R*)]-2-[(4-tert-Butyl-benzyl)-methyl-amino]-4-methyl-pentanoic acid [2-(4-benzyloxy-phenyl)-1-tert-butylcarbamoyl-ethyl]-amide], for which the “DBA/2 mice % Protection dose @ 30 mg/kg” value with DBA/2 mice was 60%. The IC50 on N-type Ca^2+ Channel (setting [1]) worked out at 40 nM. In the same order, the values of `CC(C)CC(NC(C)C)C(=O)NC(Cc1ccc(OCc2ccccc2)cc1)C(=O)OC(C)(C)C` (stereo not drawn) [Example 92, [S-(R*,R*)]-3-(4-Benzyloxy-phenyl)-2-(2-isopropylamino4-methyl-pentanoylamino)-propionic acid tert-butyl ester] are 100% and 800 nM.

As for `CC(C)CC(C(=O)NC(Cc1ccc(OCc2ccccc2)cc1)C(=O)NC(C)(C)C)N(C)C1C=CCCC1` (stereo not drawn) [Example 47, [S-(R*,R*)]-2-(Cyclohex-2-enyl-methyl-amino)-4-methyl-pentanoic acid [2-(4-benzyloxy-phenyl)-1-tert-butylcarbamoyl-ethyl]-amide], the “DBA/2 mice % Protection dose @ 30 mg/kg” value in the assay on DBA/2 mice is on record as 100%. Also, the IC50 on N-type Ca^2+ Channel (setting [1]) was 280 nM. On to `CC(C)C[C@H](NC1CCOCC1)C(=O)N[C@@H](Cc1ccc(OCc2ccccc2)cc1)C(=O)NCCCn1ccnc1` (relative stereo) [Example 129, [S-(R*,R*)]-4-Methyl-2-(tetrahydropyran-4-yl-amino)-pentanoic acid [2-(4-benzyloxy-phenyl)-1-(3-imidazol-1-yl-propylcarbamoyl)-ethyl]-amide], for which the IC50 on N-type Ca^2+ Channel (setting [2]) was determined as 6300 nM. On to `CC(C)CCN(C)[C@@H](CC(C)C)C(=O)N[C@@H](Cc1ccc(OCc2ccccc2)cc1)C(=O)NC(C)(C)CO` (relative stereo) [Example 116, [S-(R*,R*)]4-Methyl-2-[methyl-(3-methylbutyl)-amino]-pentanoic acid [2-(4-benzyloxy-phenyl)-1-(2-hydroxy-1,1-dimethyl-ethylcarbamoyl)-ethyl]-amide], for which the IC50 at N-type Ca^2+ Channel (setting [2]) was determined as 1400 nM. Consider `CC(C)C[C@@H](C(=O)N[C@@H](Cc1ccc(OCc2ccccc2)cc1)C(=O)NC(C)(C)C)N(C)CC(C)C` (relative stereo) [Example 42, [S-(R*,R*)]-2-(Isobutyl-methyl-amino)-4-methyl-pentanoic acid [2-(4-benzyloxy-phenyl)-1-tert-butylcarbamoyl-ethyl]-amide], for which the IC50 at N-type Ca^2+ Channel (setting [1]) stood at 380 nM. `CC(C)CCN(C)[C@@H](CC(C)C)C(=O)N[C@@H](Cc1ccc(OCc2ccccc2)cc1)C(=O)N1CCCCC1` (relative stereo) [Example 8, [S-(R*,R*)]-4-Methyl-2-[methyl-(3-methyl-butyl)-amino]-pentanoic acid [1-(4-benzyloxy-benzyl)-2-oxo-2-piperidin-1-yl-ethyl]-amide]: on N-type Ca^2+ Channel (5 μM nitrendipine), the “IMR 32 % of Blockade @ 1 μM” value was 70% and the “IMR 32 % of Blockade @ 10 μM” value stood at 87%. Turning to `CC(C)C[C@@H](C(=O)N[C@@H](Cc1ccc(OCc2ccccc2)cc1)C(=O)NCCN1CCCCC1)N(C)C1CCCCC1` (relative stereo) [Example 21, [S-(R*,R*)]-2-(Cyclohexyl-methyl-amino)4-methyl-pentanoic acid [2-(4-benzyloxy-phenyl)-1-(2-piperidin-1-yl-ethylcarbamoyl)-ethyl]-amide], the IC50 on N-type Ca^2+ Channel (setting [1]) was determined as 880 nM. Still for that read-out and setting: to `CC(C)C[C@@H](C(=O)N[C@@H](Cc1ccc(OCc2ccccc2)cc1)C(=O)NC(C)(C)C)N(C)CCC(C)(C)C` (relative stereo) [Example 36, [S-(R*,R*)]-2-[(3,3-Dimethyl-butyl)-methyl-amino]-4-methyl-pentanoic acid [2-(4-benzyloxy-phenyl)-1-tert-butylcarbamoyl-ethyl]-amide] belongs 400 nM.

Regarding `CC(C)C[C@@H](C(=O)N[C@@H](Cc1ccc(OCc2ccccc2)cc1)C(=O)NCCN1CCCCC1)N(C)C` (relative stereo) [Example 3, [S-(R*,R*)]-2-Dimethylamino-4-methyl-pentanoic acid [2-(4-benzyloxy-phenyl)-1-(2-piperidin-1-yl-ethylcarbamoyl)-ethyl]-amide], at N-type Ca^2+ Channel (5 μM nitrendipine), the “IMR 32 % of Blockade @ 1 μM” value worked out at 21% and the “IMR 32 % of Blockade @ 10 μM” value was determined as 70%. `CC(C)CC(NCc1ccc(C(C)(C)C)cc1)C(=O)NC(Cc1ccc(OCc2ccccc2)cc1)C(=O)NC(C)(C)C` (stereo not drawn) [Example 50, [S-(R*,R*)]-2-(4-tert-Butyl-benzylamino)-4-methyl-pentanoic acid [2-(4-benzyloxy-phenyl)-1-tert-butylcarbamoyl-ethyl]-amide]: the IC50 on N-type Ca^2+ Channel (setting [1]) amounted to 420 nM.
